Values quoted from earlier work as cited in US11503825B2, “Pyrethroid formulations” (Vive Crop Protection Inc., priority 2011, dated 2022).
In brackets after ≈: the same amount, converted by molar mass. Entries after “also recorded” stand apart in the source; their conditions may differ. Read-outs that look alike come from different tables or passages of the source.

Experiments:
[1] = cited from earlier work; for Photolysis DT50: aqueous solution; for Photolytic stability: in words
[2] = cited from earlier work
[3] = cited from earlier work; remark: listed apart in the source
[4] = cited from earlier work; for Stability data: in words
[5] = hydrolysis prevents measurement; cited from earlier work

## CC1(C)[C@H](C(=O)O[C@H](C#N)c2cccc(Oc3ccccc3)c2)[C@@H]1/C=C(\Cl)C(F)(F)F [Gamma-cyhalothrin, (S)-α-cyano-3-phenoxybenzyl (Z)-(1R,3R)-3-(2-chloro-3,3,3-trifluoroprop-1-enyl)-2,2-dimethylcyclopropanecarboxylate]
[1]
  Photolysis DT50: Photolysis DT50 (aqueous solution) 10.6 days^+
[2]; 20° C.
  Solubility in water: water 2.1 × 10^−3 mg/l (20° C.)
[3]; 19° C.
  KOW logP: logP = 4.96

## A mixture of the enantiomers (R)-α-cyano-3-phenoxybenzyl (1S,3R)-3-(2,2-dichlorovinyl)-2,2-dimethylcyclopropanecarboxylate and (S)-α-cyano-3-phenoxybenzyl (1R,3S)-3-(2,2-dichlorovinyl)-2,2-dimethylcyclopropanecarboxylate in the ratio 1:1 [Theta-cypermethrin]
[4]; pH 3, 5, 6, 25° C.
  DT50 (extrapolated): 50 days
[4]; pH 7, 25° C.
  DT50 (extrapolated): 20 days
[4]; pH 8, 25° C.
  DT50 (extrapolated): 18 days
[4]; pH 9, 25° C.
  DT50 (extrapolated): 10 days

## CC1(C)C(C=C(Cl)Cl)C1C(=O)OC(C#N)c1cccc(Oc2ccccc2)c1 (racemic) [Cypermethrin, (RS)-α-cyano-3-phenoxybenzyl (1RS,3RS;1RS,3SR)-3-(2,2-dichlorovinyl)-2,2-dimethylcyclopropanecarboxylate]
[4]; pH 9, 25° C.
  DT50 (hydrolysis): 1.8 days

## Beta-cypermethrin
[3]
  KOW logP: logP = 4.7
[4]
  Stability data: Hydrolyzed in strongly alkaline media. DT50
[4]; pH 3, 5, 6, 25° C.
  DT50 (extrapolated): 50 days
[4]; pH 7, 25° C.
  DT50 (extrapolated): 40 days
[4]; pH 8, 25° C.
  DT50 (extrapolated): 20 days
[4]; pH 9, 25° C.
  DT50 (extrapolated): (pH 8), 15 d (pH 9) (all at 25° C.)

## CC(C)[C@H](C(=O)O[C@H](C#N)c1cccc(Oc2ccccc2)c1)c1ccc(Cl)cc1 [Esfenvalerate, (S)-α-cyano-3-phenoxybenzyl (S)-2-(4-chlorophenyl)-3-methylbutyrate]
[1]
  Photolytic stability: Stable^+
[2]; 20° C.
  Solubility in hexane: 77 mg/mL (≈ 183 mM)
  Solubility in water: water 0.002 mg/l (20° C.)
  Solubility in xylene, acetone, chloroform, ethanol, methanol, DMF, hexylene glycol: > 450 mg/mL
[3]; pH 7, 25° C.
  KOW logP: logP = 6.5
[4]
  Stability data: Stable to hydrolysis at pH 5, 7 and 9 (25° C.).

## CC(C)=CC1C(C(=O)OCc2coc(Cc3ccccc3)c2)C1(C)C (stereo not drawn) [Resmethrin, 5-benzyl-3-furylmethyl (1RS,3RS;1RS,3SR)-2,2-dimethyl-3-(2-methylprop-1-enyl)cyclopropane carboxylate]
[1]
  Photolytic stability: Decomposes rapidly on exposure to air and light^+
[2]; 25° C.
  Solubility in water: water 37.9 μg/l (25° C.)
[2]; m/v, 20° C.
  Solubility in acetone: acetone c. 30%, chloroform,
  Solubility in chloroform, dichloromethane, ethyl acetate, toluene: > 50%
  Solubility in ethanol, n-octanol: ethanol, n-octanol c. 6%, n-hexane
  Solubility in isopropyl ether: ~25%
  Solubility in methanol: methanol c. 3% (all m/v, 20° C.)
  Solubility in n-hexane: ~10%
  Solubility in xylene: > 40%
[3]; 25° C.
  KOW logP: logP = 5.43
[4]
  Stability data: Unstable in alkaline media

## CC1(C)C(C=C(Cl)Cl)C1C(=O)OC(C#N)c1cccc(Oc2ccccc2)c1 (racemic) [Alpha-cypermethrin, A racemate comprising (S)-α-cyano-3-phenoxybenzyl (1R,3R)-3-(2,2-dichlorovinyl)-2,2-dimethylcyclopropanecarboxylate and (R)-α-cyano-3-phenoxybenzyl (1S,3S)-3-(2,2-dichlorovinyl)-2,2-dimethylcyclopropanecarboxylate]
[4]; pH 4, 50° C.
  DT50 (hydrolysis): stable over 10 d
[4]; pH 7, 20° C.
  DT50 (hydrolysis): 101 days
[4]; pH 9, 20° C.
  DT50 (hydrolysis): 7.3 days

## CC(C)[C@@H](C(=O)O[C@@H](C#N)c1cccc(Oc2ccccc2)c1)c1ccc(Cl)cc1 (racemic) [Fenvalerate, (RS)-α-cyano-3-phenoxybenzyl (RS)-2-(4-chlorophenyl)-3-methylbutyrate]
[1]
  Photolytic stability: Decarboxylation occurs in light^+
[2]; 20° C.
  Solubility in methanol: methanol 84 (all in g/l, 20° C.)
  Solubility in n-hexane: 53 g/L (≈ 126 mM)
  Solubility in xylene: > 200 g/L
[2]; 25° C.
  Solubility in water: water <10 μg/l (25° C.)
[3]; 23° C.
  KOW logP: logP = 5.01
[4]
  Stability data: rapidly hydrolyzed in alkaline media

## CC1(C)C(C=C(Cl)Cl)C1C(=O)OC(C#N)c1cccc(Oc2ccccc2)c1 (racemic) [Zeta-cypermethrin, A mixture of the stereoisomers (S)-α-cyano-3-phenoxybenzyl (1RS,3RS;1RS,3SR)-3-(2,2-dichlorovinyl)-2,2-dimethylcyclopropanecarboxylate where the ratio of the (S);(1RS,3RS) isomeric pair to the (S);(1RS,3SR) isomeric pair lies in the ratio range 45-55 to 55-45]
[1]
  Photolysis DT50: Photolysis DT50 (aqueous solution) 20-26 days^+
[4]; pH 7, 25° C.
  Hydrolysis DT50: 25 days
[4]; pH 9, 50° C.
  Hydrolysis DT50: 1.5 h (pH 9, 50° C.)

## CC1(C)[C@H](C(=O)O[C@H](C#N)c2cccc(Oc3ccccc3)c2)[C@@H]1C=C(Br)Br [Deltamethrin, (S)-α-cyano-3-phenoxybenzyl (1R,3R)-3-(2,2-dibromovinyl)-2,2-dimethylcyclopropanecarboxylate]
[1]
  Photolytic stability: Ester bond splitting and bromine loss under
[3]; 25° C.
  KOW logP: logP = 4.6
[4]
  Stability data: stable at pH 5 and 7
[4]; pH 8
  DT50: 31 days
[4]; pH 9
  DT50: 2.5 days

## CC1(C)[C@H](C(=O)O[C@@H](C#N)c2cccc(Oc3ccccc3)c2)[C@@H]1/C=C(\Cl)C(F)(F)F (racemic) [Cyhalothrin, (RS)-α-cyano-3-phenoxybenzyl (Z)-(1RS,3RS)-3-(2-chloro-3,3,3-trifluoroprop-1-enyl)-2,2-dimethylcyclopropanecarboxylate]
[5]
  pKa: > 9
[1]
  Photolytic stability: Stable to light; slow hydrolysis by water in
[2]
  Solubility in acetone, dichloromethane, methanol, diethyl ether, ethyl acetate, hexane, toluene: acetate, hexane, toluene: >500 g/L
[2]; pH 5, 20° C.
  Solubility in water: water: 4.2 ug/L (pH 5, 20° C.)
[3]; 20° C.
  KOW logP: logP = 6.9
[4]
  Stability data: Slowly hydrolyzed by water in sunlight at pH 7-9,; also recorded: more rapidly at pH >9

## CC1(C)C(C=C(Cl)Cl)C1C(=O)OCc1cccc(Oc2ccccc2)c1 (stereo not drawn) [Permethrin, 3-phenoxybenzyl (1RS,3RS;1RS,3SR)-3-(2,2-dichlorovinyl)-2,2-dimethylcyclopropanecarboxylate]
[1]
  Photolytic stability: Photolysis in water^++
[2]; 25° C.
  Solubility in methanol: 258 (all in g/kg, 25° C.)
  Solubility in xylene, hexane: xylene, hexane >1000, methanol g/kg
[2]; pH 7, 20° C.
  Solubility in water: water 6 × 10^−3mg/l (pH 7, 20° C.);
[2]; trans- isomers, pH not stated, 25° C.
  Solubility in water: stated, 25° C.); trans- isomers 0.13 mg/l
[4]; pH 5, 7, 25° C.
  DT50: stable
[4]; pH 9, 25° C.
  DT50 (hydrolysis): 50 days

## Cc1c(COC(=O)[C@@H]2[C@H](/C=C(\Cl)C(F)(F)F)C2(C)C)cccc1-c1ccccc1 (racemic) [Bifenthrin, 2-methylbiphenyl-3-ylmethyl (Z)-(1RS,3RS)-3-(2-chloro-3,3,3-trifluoroprop-1-enyl)-2,2-dimethylcyclopropanecarboxylate]
[1]; in natural daylight
  Photolytic stability DT50: DT50 255 days in natural daylight^+
[4]; range
  Soil DT50 (lab.): 53 to 192 days
